{"source": "ChEMBL document CHEMBL1201862", "about": "“PubChem BioAssay data set” (2004)", "key": {"HEK293": {"system": "HEK293", "experiment": "Fluorescence-based counterscreen for potentiators or agonists of NPY-Y2: cell-based high-throughput dose response assay to identify inhibitors of cyclic nucleotide gated ion channel (CNGC) activity. In this assay, the parental HEK293 cell line transfected with a cyclic-nucleotide gated ion channel (CNGC)-based cAMP sensor is used to measure inhibition of isoproterenol-induced CNGC activity by test compound.", "assay_type": "functional", "settings": "Homo sapiens"}, "[1]": {"biological_target": "T1, Neuropeptide Y receptor type 2 (Homo sapiens, UniProt P49146)", "T1 sequence (P49146 whole entry)": "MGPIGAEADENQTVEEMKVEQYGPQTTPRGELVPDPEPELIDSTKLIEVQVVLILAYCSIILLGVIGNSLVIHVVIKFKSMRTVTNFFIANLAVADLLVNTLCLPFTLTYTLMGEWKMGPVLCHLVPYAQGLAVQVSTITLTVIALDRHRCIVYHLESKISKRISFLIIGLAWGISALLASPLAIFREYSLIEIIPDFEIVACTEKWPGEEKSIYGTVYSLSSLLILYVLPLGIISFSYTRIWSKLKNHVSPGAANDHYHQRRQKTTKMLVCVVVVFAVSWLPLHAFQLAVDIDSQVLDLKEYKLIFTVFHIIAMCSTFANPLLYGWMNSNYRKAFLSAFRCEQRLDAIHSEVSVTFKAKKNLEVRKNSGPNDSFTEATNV", "experiment": "Fluorescence-based cell-based high-throughput dose response assay for agonists of NPY-Y2. [Related pubchem assays: 1703 (Screening assay (CNGC inhibitors).), 1359 (Screening assay (NPY-Y2 potentiators or agonists).), 1304 (Screening assay (NPY-Y1 potentiators or agonists).), 1710 (Screening assay (NPY-Y2 agonists).), 1791 (Summary AID.)]", "assay_type": "functional"}, "[2]": {"biological_target": "T2, Neuropeptide Y receptor type 1 (Homo sapiens, UniProt P25929)", "T2 sequence (P25929 whole entry)": "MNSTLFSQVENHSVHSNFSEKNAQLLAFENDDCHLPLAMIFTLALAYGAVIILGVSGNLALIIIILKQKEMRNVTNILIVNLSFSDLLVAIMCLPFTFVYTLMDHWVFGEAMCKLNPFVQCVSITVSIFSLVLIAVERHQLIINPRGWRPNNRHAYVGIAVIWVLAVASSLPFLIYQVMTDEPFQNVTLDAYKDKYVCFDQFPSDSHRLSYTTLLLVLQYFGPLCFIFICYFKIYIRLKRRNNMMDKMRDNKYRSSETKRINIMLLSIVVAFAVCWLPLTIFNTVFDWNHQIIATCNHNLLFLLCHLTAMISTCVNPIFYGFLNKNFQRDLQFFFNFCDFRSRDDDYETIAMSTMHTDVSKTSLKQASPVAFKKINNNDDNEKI", "experiment": "Fluorescence-based counterscreen for agonists of NPY-Y2: cell-based high-throughput dose response assay for agonists of NPY-Y1.", "assay_type": "functional"}, "Leucine aminopeptidase": {"biological_target": "T3, Leucine aminopeptidase (Plasmodium falciparum 3D7, UniProt Q8IL11)", "T3 sequence (Q8IL11 whole entry)": "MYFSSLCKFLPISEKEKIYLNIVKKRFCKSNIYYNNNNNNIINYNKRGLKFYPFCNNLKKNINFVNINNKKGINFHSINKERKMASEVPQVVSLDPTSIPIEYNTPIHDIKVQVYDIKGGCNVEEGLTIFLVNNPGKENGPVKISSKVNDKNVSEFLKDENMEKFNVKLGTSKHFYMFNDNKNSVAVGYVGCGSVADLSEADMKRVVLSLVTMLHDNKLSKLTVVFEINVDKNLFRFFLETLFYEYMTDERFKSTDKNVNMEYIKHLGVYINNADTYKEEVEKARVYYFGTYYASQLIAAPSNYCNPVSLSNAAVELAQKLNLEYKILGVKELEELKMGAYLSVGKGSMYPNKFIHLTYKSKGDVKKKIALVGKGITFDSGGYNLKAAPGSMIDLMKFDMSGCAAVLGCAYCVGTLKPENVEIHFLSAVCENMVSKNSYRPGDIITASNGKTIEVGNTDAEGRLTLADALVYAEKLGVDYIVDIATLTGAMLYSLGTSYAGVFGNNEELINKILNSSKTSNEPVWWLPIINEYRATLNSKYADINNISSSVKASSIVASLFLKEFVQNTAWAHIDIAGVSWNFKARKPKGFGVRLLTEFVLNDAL", "experiment": "P. falciparum M17LAP inhibitors, primary screen, biochemical, fluorogenic H-Leu-NHMec substrate, 1536-well (AID 1619)", "assay_type": "functional"}, "[3]": {"experiment": "enhancers of respiration in Yfh1-depleted yeast, dose response, Friedreich's ataxia, plus single-dose screen (AID 1465);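 note: yeast depleted of Yfh1p frataxin homolog grown on glycerol needing respiration; WST-1 tetrazolium dye reduction as measure of cellular dehydrogenase metabolic activity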", "assay_type": "functional"}, "[4]": {"biological_target": "Lysosomal acid glucosylceramidase (Homo sapiens, UniProt P04062)", "sequence (P04062 whole entry)": "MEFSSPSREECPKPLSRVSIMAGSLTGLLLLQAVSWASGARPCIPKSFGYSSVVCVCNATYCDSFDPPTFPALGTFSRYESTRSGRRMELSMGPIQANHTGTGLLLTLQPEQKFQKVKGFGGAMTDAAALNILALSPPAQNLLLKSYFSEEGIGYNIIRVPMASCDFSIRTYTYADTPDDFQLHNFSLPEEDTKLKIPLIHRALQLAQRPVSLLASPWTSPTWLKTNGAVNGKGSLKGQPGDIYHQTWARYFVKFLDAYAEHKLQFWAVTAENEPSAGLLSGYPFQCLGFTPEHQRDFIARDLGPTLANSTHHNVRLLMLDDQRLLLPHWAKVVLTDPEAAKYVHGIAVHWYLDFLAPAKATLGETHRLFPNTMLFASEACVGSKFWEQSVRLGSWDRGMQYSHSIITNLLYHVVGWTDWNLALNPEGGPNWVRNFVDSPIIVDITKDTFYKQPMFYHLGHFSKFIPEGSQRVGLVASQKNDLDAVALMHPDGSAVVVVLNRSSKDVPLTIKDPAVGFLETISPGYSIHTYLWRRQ", "experiment": "Dose response cell-based high throughput screening assay to identify enhancers of beta-glucosidase activity. [Related pubchem assays: 784 ]", "assay_type": "functional"}, "Cytochrome P450 2D6": {"biological_target": "Cytochrome P450 2D6 (Homo sapiens, UniProt P10635)", "sequence (P10635 whole entry)": "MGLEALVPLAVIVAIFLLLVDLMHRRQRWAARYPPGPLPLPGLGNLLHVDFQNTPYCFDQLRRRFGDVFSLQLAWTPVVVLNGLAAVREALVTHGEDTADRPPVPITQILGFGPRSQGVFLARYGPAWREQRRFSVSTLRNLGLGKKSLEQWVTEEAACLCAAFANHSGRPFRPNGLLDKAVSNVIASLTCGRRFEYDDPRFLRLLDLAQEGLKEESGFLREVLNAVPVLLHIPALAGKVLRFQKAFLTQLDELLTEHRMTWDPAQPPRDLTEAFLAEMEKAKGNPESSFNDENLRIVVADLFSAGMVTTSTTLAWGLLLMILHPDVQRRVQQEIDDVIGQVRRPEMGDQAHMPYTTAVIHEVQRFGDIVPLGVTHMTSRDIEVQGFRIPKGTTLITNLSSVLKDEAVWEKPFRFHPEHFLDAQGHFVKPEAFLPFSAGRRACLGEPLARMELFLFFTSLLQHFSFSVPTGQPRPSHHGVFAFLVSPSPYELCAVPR", "experiment": "qHTS Assay for Inhibitors and Substrates of Cytochrome P450 2D6. [Related pubchem assays: 410 ]", "assay_type": "ADME", "settings": "read-out: Potency"}, "[5]": {"experiment": "HEp-2 cell cytotoxicity, dose response, cytotoxicity control for RSV inhibitor project, HTS (AID 2410)", "assay_type": "functional", "settings": "human respiratory syncytial virus"}, "HeLa": {"system": "HeLa", "experiment": "Cytotoxicity counterscreen assay for transcriptional activators of heat shock protein 70 (Hsp70). [Related pubchem assays: 1203, 1252 ]", "assay_type": "functional", "settings": "Homo sapiens"}, "[6]": {"biological_target": "T4, Voltage-gated N-type calcium channel alpha-1B subunit/Amyloid beta A4 precursor protein-binding family A member 1 (Homo sapiens, UniProt Q00975+Q02410)", "T4 sequence (Q00975 whole entry)": "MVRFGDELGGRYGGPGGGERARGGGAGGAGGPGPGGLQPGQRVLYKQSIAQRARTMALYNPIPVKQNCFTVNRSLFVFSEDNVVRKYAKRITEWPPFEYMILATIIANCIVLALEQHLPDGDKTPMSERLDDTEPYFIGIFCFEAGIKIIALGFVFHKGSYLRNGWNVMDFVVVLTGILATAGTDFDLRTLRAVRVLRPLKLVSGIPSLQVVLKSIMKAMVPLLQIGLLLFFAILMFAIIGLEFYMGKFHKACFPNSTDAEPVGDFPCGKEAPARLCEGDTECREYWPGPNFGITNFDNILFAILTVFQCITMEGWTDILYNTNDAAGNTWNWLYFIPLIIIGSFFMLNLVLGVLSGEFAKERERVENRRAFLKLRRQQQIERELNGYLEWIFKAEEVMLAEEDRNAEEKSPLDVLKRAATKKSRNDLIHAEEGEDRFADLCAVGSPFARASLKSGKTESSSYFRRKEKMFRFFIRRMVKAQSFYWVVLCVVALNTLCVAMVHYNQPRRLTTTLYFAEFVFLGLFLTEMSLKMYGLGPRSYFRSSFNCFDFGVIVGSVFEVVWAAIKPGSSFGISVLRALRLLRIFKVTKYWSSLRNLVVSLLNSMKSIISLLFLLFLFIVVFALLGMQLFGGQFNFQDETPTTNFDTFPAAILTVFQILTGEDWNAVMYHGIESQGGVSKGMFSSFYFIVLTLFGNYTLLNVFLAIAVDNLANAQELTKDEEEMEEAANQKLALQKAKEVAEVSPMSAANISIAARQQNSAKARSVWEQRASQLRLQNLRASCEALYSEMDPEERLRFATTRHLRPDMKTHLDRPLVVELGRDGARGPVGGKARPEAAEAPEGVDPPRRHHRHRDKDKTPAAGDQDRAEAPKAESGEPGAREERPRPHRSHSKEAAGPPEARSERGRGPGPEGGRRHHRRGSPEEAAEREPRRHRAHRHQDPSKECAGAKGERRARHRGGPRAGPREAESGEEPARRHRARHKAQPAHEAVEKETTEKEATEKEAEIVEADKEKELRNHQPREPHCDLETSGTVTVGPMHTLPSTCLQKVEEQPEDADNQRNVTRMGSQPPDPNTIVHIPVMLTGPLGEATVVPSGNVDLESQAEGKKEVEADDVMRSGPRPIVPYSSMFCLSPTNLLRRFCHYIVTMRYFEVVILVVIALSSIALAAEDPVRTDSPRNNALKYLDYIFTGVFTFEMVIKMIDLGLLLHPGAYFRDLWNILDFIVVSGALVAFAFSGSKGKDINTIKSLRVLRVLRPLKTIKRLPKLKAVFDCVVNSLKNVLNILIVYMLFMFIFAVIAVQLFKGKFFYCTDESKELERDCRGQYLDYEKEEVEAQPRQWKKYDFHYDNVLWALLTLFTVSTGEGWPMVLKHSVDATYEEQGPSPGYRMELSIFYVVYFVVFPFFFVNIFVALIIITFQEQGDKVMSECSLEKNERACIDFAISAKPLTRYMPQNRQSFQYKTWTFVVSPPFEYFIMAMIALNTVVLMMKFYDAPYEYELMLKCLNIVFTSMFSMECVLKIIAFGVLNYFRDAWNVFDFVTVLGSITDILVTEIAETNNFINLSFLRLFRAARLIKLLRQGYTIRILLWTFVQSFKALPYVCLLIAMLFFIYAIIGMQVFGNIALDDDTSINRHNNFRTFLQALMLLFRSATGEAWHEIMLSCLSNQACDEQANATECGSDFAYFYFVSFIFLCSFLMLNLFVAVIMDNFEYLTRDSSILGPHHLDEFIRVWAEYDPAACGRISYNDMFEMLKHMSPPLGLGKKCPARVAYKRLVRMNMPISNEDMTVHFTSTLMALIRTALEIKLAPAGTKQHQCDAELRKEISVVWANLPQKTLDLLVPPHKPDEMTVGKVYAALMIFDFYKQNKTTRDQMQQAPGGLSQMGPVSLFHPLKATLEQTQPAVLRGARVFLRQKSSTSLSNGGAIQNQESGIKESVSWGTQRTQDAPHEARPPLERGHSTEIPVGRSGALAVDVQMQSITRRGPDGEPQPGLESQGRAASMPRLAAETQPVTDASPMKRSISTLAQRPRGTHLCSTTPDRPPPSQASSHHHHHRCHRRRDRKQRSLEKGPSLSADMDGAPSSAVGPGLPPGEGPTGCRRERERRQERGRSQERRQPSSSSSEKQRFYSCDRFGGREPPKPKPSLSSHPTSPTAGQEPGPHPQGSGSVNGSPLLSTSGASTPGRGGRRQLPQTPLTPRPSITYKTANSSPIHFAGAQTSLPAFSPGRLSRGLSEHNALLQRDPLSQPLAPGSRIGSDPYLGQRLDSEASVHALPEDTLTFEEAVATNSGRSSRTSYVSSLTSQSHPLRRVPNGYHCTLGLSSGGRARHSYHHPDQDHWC", "T4 sequence (Q02410 whole entry)": "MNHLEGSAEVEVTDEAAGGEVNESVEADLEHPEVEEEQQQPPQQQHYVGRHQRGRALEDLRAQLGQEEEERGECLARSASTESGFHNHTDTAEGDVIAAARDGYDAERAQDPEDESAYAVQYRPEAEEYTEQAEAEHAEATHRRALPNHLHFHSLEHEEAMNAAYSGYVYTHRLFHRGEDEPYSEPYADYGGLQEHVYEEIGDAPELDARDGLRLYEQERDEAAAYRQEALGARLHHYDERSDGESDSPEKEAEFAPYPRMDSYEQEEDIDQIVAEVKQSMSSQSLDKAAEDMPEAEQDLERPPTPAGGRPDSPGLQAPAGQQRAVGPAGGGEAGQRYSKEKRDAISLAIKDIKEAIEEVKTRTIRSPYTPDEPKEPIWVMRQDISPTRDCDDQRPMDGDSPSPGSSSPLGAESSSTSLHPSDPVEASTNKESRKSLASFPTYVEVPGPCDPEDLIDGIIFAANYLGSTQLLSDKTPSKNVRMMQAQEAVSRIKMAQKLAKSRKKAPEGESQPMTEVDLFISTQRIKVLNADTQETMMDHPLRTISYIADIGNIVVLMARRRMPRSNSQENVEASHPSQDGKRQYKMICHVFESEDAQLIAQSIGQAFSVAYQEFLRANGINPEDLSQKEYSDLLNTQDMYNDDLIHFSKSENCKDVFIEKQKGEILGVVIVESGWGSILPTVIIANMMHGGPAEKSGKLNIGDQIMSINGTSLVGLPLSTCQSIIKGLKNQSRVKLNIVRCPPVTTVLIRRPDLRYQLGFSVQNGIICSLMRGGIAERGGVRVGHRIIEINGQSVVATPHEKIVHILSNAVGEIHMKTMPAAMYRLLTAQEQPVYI", "assay_type": "protein assay"}, "[7]": {"biological_target": "T4, Voltage-gated N-type calcium channel alpha-1B subunit/Amyloid beta A4 precursor protein-binding family A member 1", "assay_type": "protein assay", "remark": "listed apart in the source"}, "[8]": {"experiment": "inhibitors of intracellular T. cruzi replication, confirmation, NIH3T3 host cells, beta-gal luminescence (AID 2044);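 note: luminescent beta-galactosidase reporter signal from transgenic T. cruzi replicating inside host cells; inhibitors lower the luminescence signal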", "assay_type": "functional, cell-based"}, "[9]": {"experiment": "cytotoxicity toward NIH3T3 fibroblasts, dose response, counter-screen, cell-based, ATP luminescence, mouse fibroblasts (AID 2010);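 note: cells exposed to compound for about 90 hours before reading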", "assay_type": "functional"}, "[10]": {"biological_target": "Heat shock protein HSP 90-alpha (Homo sapiens, UniProt P07900)", "assay_type": "functional, organism-based"}, "INS1": {"system": "INS1", "experiment": "beta cell apoptosis inhibitors, cytokine rescue, dose response, luminescence, retest (AID 449756);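 note: cell death triggered by IL-1 beta plus TNF-alpha plus IFN-gamma mixture; protective hits raise ATP signal compared with cytokine alone wells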", "assay_type": "functional, cell-based", "settings": "Rattus norvegicus"}, "[11]": {"biological_target": "Eukaryotic translation initiation factor 4H (Homo sapiens, UniProt Q15056)", "experiment": "human eIF4H binding inhibitors, primary screen, translation initiation inhibitor project, biochemical, uHTS, fluorescence polarization (AID 2012)"}, "[12]": {"biological_target": "Polyadenylate-binding protein 1 (Homo sapiens, UniProt P11940)", "sequence (P11940 whole entry)": "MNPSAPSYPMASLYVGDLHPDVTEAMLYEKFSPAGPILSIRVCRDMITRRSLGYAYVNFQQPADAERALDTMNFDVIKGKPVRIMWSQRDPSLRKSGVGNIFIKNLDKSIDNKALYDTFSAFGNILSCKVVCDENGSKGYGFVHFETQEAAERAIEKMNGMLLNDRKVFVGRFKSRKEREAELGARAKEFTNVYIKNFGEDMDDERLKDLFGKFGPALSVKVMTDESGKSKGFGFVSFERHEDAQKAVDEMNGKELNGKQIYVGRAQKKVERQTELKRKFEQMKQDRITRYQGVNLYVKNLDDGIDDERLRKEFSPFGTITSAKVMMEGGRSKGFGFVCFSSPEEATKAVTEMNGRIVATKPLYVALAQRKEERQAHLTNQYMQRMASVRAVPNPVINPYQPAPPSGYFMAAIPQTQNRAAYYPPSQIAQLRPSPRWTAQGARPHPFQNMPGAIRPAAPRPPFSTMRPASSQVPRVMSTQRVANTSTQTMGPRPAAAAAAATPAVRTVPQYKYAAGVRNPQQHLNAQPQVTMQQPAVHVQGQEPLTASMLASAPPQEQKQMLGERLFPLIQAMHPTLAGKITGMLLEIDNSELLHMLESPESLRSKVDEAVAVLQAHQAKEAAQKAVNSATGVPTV", "experiment": "PABP poly(A) RNA binding inhibitors, primary screen, biochemical, fluorescence polarization, uHTS (AID 2014)"}}, "note": "Activity calls are given as the source filed them."}
{"smiles": "Nc1sc(-c2ccccc2)cc1-c1nnc(S)n1C1CCCCC1", "values": [{"measurement": "EC50", "setting": "HEK293", "value": "22.5 µM (not active)"}, {"measurement": "EC50", "setting": "[1]", "value": "30.8 µM (not active)"}, {"measurement": "EC50", "setting": "[2]", "value": "24.4 µM (not active)"}]}
{"smiles": "O=C(O)CN1C(=O)/C(=C\\c2cn(CC(=O)N3CCOCC3)c3ccccc23)SC1=S", "values": [{"measurement": "IC50", "setting": "Leucine aminopeptidase", "value": "13.1 µM (active)"}, {"measurement": "EC50", "setting": "[3]", "value": "> 100 µM (active)"}]}
{"smiles": "CC1CCC(C(=O)NC(C(=O)NCCCN2CCOCC2)C(C)C)CC1", "note": "(configuration not stated)", "values": [{"measurement": "EC50", "setting": "[4]", "value": "> 10 µM (not active)"}]}
{"smiles": "CC(C)[C@@H]1OC(=O)\\C=C/C=C\\C=C/C=C\\C=C/C[C@@H](O)[C@H](C)[C@@H](O)C[C@H](O)C[C@H](O)C[C@H](O)C[C@H](O)C[C@H](O)C[C@H](O)/C=C\\[C@@H]1C", "values": [{"measurement": "AC50", "setting": "Cytochrome P450 2D6", "value": "0.316 µM (inconclusive)"}]}
{"smiles": "N#C/C(=C/c1ccc(N2CCCCCC2)o1)c1ccc(Cl)cc1", "values": [{"measurement": "CC50", "setting": "[5]", "value": "16.9 µM (active)"}, {"measurement": "CC50", "setting": "HeLa", "value": "> 99 µM (not active)"}, {"measurement": "IC50", "setting": "[6]", "value": "4.77 µM (active)"}, {"measurement": "IC50", "setting": "[7]", "value": "> 50 µM (inactive)"}, {"measurement": "EC50", "setting": "[8]", "value": "1.81 µM (active)"}, {"measurement": "EC50", "setting": "[9]", "value": "> 60 µM (inconclusive)"}, {"measurement": "AC50", "setting": "[10]", "value": "20.4 µM (active)"}, {"measurement": "AC50", "setting": "INS1", "value": "8.91 µM (active)"}]}
{"smiles": "Cc1cc(Br)ccc1SCC(=O)OCC(=O)NCc1ccco1", "values": [{"measurement": "IC50", "setting": "[11]", "value": "2.93 µM (active)"}, {"measurement": "IC50", "setting": "[12]", "value": "9.37 µM (active)"}]}
